Laboratory results taken from ChEMBL document CHEMBL1201862, “PubChem BioAssay data set” (2004).
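Values below derive from 48-hour exposures of cells grown in 96-well plates, with endpoints linearly interpolated between the two concentrations bracketing the appropriate inhibition level. Abbreviation: GI50, concentration required for 50% inhibition of growth.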 Activity calls are given as the source filed them. Rule as the data show it: active = GI50 up to about 1.1 µM and inactive = higher.

Assays:
Assay in all cases: inhibition of tumour cell growth, NCI panel, 48 h
[1] = test system: DMS-273
[2] = test system: DLD-1
[3] = test system: M14
[4] = test system: SF-268
[5] = test system: TK-10
[6] = test system: HL-60
[7] = test system: CCRF-CEM
[8] = test system: A498
[9] = test system: CAKI-1
[10] = test system: LOX IMVI
[11] = test system: SK-MEL-2
[12] = test system: SR
[13] = test system: HOP-62
[14] = test system: UACC-62
[15] = test system: NCI/ADR-RES
[16] = test system: MCF7

SMILES	GI50 [1]	GI50 [2]	GI50 [3]	GI50 [4]	GI50 [5]	GI50 [6]	GI50 [7]	GI50 [8]	GI50 [9]	GI50 [10]	GI50 [11]	GI50 [12]	GI50 [13]	GI50 [14]	GI50 [15]	GI50 [16]
COc1nc(N)c(NC(C)=O)c(=O)n1C	> 100 µM (inactive)	> 100 µM (inactive)	> 100 µM (inactive)	> 100 µM (inactive)	> 100 µM (inactive)	> 100 µM (inactive)	> 100 µM (inactive)	> 100 µM (inactive)	> 100 µM (inactive)	> 100 µM (inactive)	> 100 µM (inactive)	> 100 µM (inactive)	–	–	–	–
COc1ccc(S(=O)(=O)c2ccccc2[N+](=O)[O-])cc1	> 100 µM (inactive)	> 100 µM (inactive)	> 100 µM (inactive)	> 100 µM (inactive)	> 100 µM (inactive)	55.6 µM (inactive)	> 100 µM (inactive)	> 100 µM (inactive)	–	91.4 µM (inactive)	> 100 µM (inactive)	> 100 µM (inactive)	> 100 µM (inactive)	> 100 µM (inactive)	–	–
CC(=O)Nc1ccc(-c2nnc(SCC(=O)Nc3ccccc3)o2)cc1	50.6 µM (inactive)	59 µM (inactive)	86.3 µM (inactive)	> 100 µM (inactive)	> 100 µM (inactive)	89.1 µM (inactive)	59.4 µM (inactive)	–	> 100 µM (inactive)	33.5 µM (inactive)	> 100 µM (inactive)	> 100 µM (inactive)	> 100 µM (inactive)	54.5 µM (inactive)	–	–
COC(=O)C1CC2(c3ccccc3)C(=O)c3ccccc3N2O1 (stereo not drawn)	31.6 µM (inactive)	78.7 µM (inactive)	> 100 µM (inactive)	> 100 µM (inactive)	> 100 µM (inactive)	28.9 µM (inactive)	30.3 µM (inactive)	> 100 µM (inactive)	36.5 µM (inactive)	26.1 µM (inactive)	39.3 µM (inactive)	18.9 µM (inactive)	71.3 µM (inactive)	34 µM (inactive)	–	–
CC1(C)OC(C(N)=O)=C(C(N)=O)O1	> 100 µM (inactive)	> 100 µM (inactive)	> 100 µM (inactive)	> 100 µM (inactive)	> 100 µM (inactive)	> 100 µM (inactive)	> 100 µM (inactive)	> 100 µM (inactive)	> 100 µM (inactive)	> 100 µM (inactive)	> 100 µM (inactive)	6.53 µM (inactive)	> 100 µM (inactive)	> 100 µM (inactive)	–	–
CC12CCC3C(CCC4(O)C=CCCC34C=O)C1(O)CC(O)C2c1ccc(=O)oc1 (stereo not drawn)	< 0.05 µM (active)	0.0578 µM (active)	–	< 0.05 µM (active)	–	0.0665 µM (active)	0.0526 µM (active)	0.054 µM (active)	0.0578 µM (active)	0.0662 µM (active)	0.111 µM (active)	–	0.0556 µM (active)	0.076 µM (active)	0.0679 µM (active)	0.0773 µM (active)
CC(C)=CCc1c(O)ccc2c1OC1c3ccc(O)c(CC=C(C)C)c3OCC21 (stereo not drawn)	6.4 µM (inactive)	5.19 µM (inactive)	–	11.2 µM (inactive)	–	4.32 µM (inactive)	6.62 µM (inactive)	11.9 µM (inactive)	9.02 µM (inactive)	6.81 µM (inactive)	18 µM (inactive)	–	9.84 µM (inactive)	5.64 µM (inactive)	8.09 µM (inactive)	8.89 µM (inactive)
COc1ccc(-c2cc(N3CCN(c4ccc(Cl)cc4)CC3)c(C#N)c(=O)o2)cc1	16.3 µM (inactive)	25.8 µM (inactive)	35.1 µM (inactive)	5.38 µM (inactive)	16.5 µM (inactive)	> 100 µM (inactive)	–	16.4 µM (inactive)	8.71 µM (inactive)	10.4 µM (inactive)	15.6 µM (inactive)	> 100 µM (inactive)	–	–	–	–
C=CCNC(=O)C(C)C1CCC2(C)C=CC(=O)C(C)=C2C1O (stereo not drawn)	> 100 µM (inactive)	> 100 µM (inactive)	–	> 100 µM (inactive)	–	> 100 µM (inactive)	> 100 µM (inactive)	> 100 µM (inactive)	> 100 µM (inactive)	> 100 µM (inactive)	> 100 µM (inactive)	–	> 100 µM (inactive)	> 100 µM (inactive)	> 100 µM (inactive)	> 100 µM (inactive)
c1c(N2CCOCC2)s[s+]c1N1CCOCC1	> 100 µM (inactive)	> 100 µM (inactive)	> 100 µM (inactive)	> 100 µM (inactive)	76.6 µM (inactive)	> 100 µM (inactive)	> 100 µM (inactive)	> 100 µM (inactive)	> 100 µM (inactive)	> 100 µM (inactive)	7.06 µM (inactive)	> 100 µM (inactive)	> 100 µM (inactive)	> 100 µM (inactive)	–	–
Cc1ccc(/C=C/C(=O)c2ccc([N+](=O)[O-])cc2)cc1	> 100 µM (inactive)	99.8 µM (inactive)	> 100 µM (inactive)	> 100 µM (inactive)	> 100 µM (inactive)	90.6 µM (inactive)	> 100 µM (inactive)	0.815 µM (active)	> 100 µM (inactive)	> 100 µM (inactive)	> 100 µM (inactive)	79.1 µM (inactive)	> 100 µM (inactive)	> 100 µM (inactive)	–	–
Cc1ccc(NC(=O)/C(CC(=O)c2c[n+]([O-])c3ccccc3[n+]2[O-])=N\NC(=O)C[n+]2ccccc2)cc1	> 100 µM (inactive)	> 100 µM (inactive)	> 100 µM (inactive)	> 100 µM (inactive)	> 100 µM (inactive)	35 µM (inactive)	> 100 µM (inactive)	> 100 µM (inactive)	> 100 µM (inactive)	> 100 µM (inactive)	> 100 µM (inactive)	> 100 µM (inactive)	> 100 µM (inactive)	> 100 µM (inactive)	–	–
COC(=O)Cc1cc(=O)n2c([nH]c3ccccc32)c1C#N	> 100 µM (inactive)	30.8 µM (inactive)	> 100 µM (inactive)	> 100 µM (inactive)	> 100 µM (inactive)	> 100 µM (inactive)	–	> 100 µM (inactive)	> 100 µM (inactive)	> 100 µM (inactive)	> 100 µM (inactive)	> 100 µM (inactive)	> 100 µM (inactive)	–	–	–
CCOC(=O)C1S/C(=N\c2ccc(C)c(C)c2)N=C1C (stereo not drawn)	> 100 µM (inactive)	> 100 µM (inactive)	> 100 µM (inactive)	> 100 µM (inactive)	> 100 µM (inactive)	61 µM (inactive)	> 100 µM (inactive)	> 100 µM (inactive)	> 100 µM (inactive)	75.2 µM (inactive)	> 100 µM (inactive)	> 100 µM (inactive)	> 100 µM (inactive)	> 100 µM (inactive)	–	–
O=C(O)CCC(NC(=O)c1ccc(Nc2cnc3cc(C(F)(F)F)ccc3n2)cc1)C(=O)O (stereo not drawn)	> 100 µM (inactive)	> 100 µM (inactive)	–	> 100 µM (inactive)	–	> 100 µM (inactive)	> 100 µM (inactive)	> 100 µM (inactive)	–	> 100 µM (inactive)	> 100 µM (inactive)	–	> 100 µM (inactive)	> 100 µM (inactive)	> 100 µM (inactive)	> 100 µM (inactive)
Cc1c(C2=NN=C(/N=N/c3c(O)cccc3O)/C2=C/c2ccccc2)c(=O)n(-c2ccccc2)n1C	> 100 µM (inactive)	> 100 µM (inactive)	–	> 100 µM (inactive)	–	> 100 µM (inactive)	> 100 µM (inactive)	> 100 µM (inactive)	> 100 µM (inactive)	> 100 µM (inactive)	> 100 µM (inactive)	–	> 100 µM (inactive)	> 100 µM (inactive)	> 100 µM (inactive)	> 100 µM (inactive)
COC(=O)C1=C(C(=O)OC)SC(=C(/N=N/c2ccccc2)c2ccccc2)S1	> 100 µM (inactive)	> 100 µM (inactive)	45.8 µM (inactive)	> 100 µM (inactive)	> 100 µM (inactive)	> 100 µM (inactive)	> 100 µM (inactive)	> 100 µM (inactive)	> 100 µM (inactive)	> 100 µM (inactive)	> 100 µM (inactive)	> 100 µM (inactive)	> 100 µM (inactive)	> 100 µM (inactive)	–	–
O=C1c2cccc3c2C(=O)c2c(cccc21)OCCOCCOCCOCCO3	> 100 µM (inactive)	> 100 µM (inactive)	> 100 µM (inactive)	> 100 µM (inactive)	> 100 µM (inactive)	74.5 µM (inactive)	47.2 µM (inactive)	–	96.4 µM (inactive)	78.2 µM (inactive)	> 100 µM (inactive)	14.2 µM (inactive)	> 100 µM (inactive)	> 100 µM (inactive)	–	–
CCOC(=O)Nc1ccc(S(=O)(=O)OC)cc1.CCOC(=O)Nc1ccc(S(=O)(=O)OC)cc1.NC(=O)NCCO	29.2 µM (inactive)	7.08 µM (inactive)	42.4 µM (inactive)	> 50 µM (inactive)	48 µM (inactive)	16.7 µM (inactive)	23.3 µM (inactive)	> 50 µM (inactive)	48.6 µM (inactive)	21.3 µM (inactive)	> 50 µM (inactive)	> 50 µM (inactive)	23.6 µM (inactive)	> 50 µM (inactive)	–	–
Cc1nc(-n2nc(-c3ccccc3)cc2-c2ccccc2)sc1C(=O)/C=C/c1ccc(Cl)c(Cl)c1	32.2 µM (inactive)	13.4 µM (inactive)	17.6 µM (inactive)	33.1 µM (inactive)	43.2 µM (inactive)	14 µM (inactive)	16.9 µM (inactive)	–	24.8 µM (inactive)	13.1 µM (inactive)	41.7 µM (inactive)	17.2 µM (inactive)	21.9 µM (inactive)	4.89 µM (inactive)	–	–
